Reference: PMC8583936, “Machine Learning Assisted Approach for Finding Novel High Activity Agonists of Human Ectopic Olfactory Receptors” (International Journal of Molecular Sciences, 2021)
Where “and” joins values, the source holds several entries; their conditions need not be identical. Identical values can stand only once. Like-named read-outs stand apart in the source and are kept apart here.

What was measured:
[1] = target: T1, OR1A1 (Homo sapiens, UniProt Q9P1Q5); assay: Dual-Glo luciferase reporter gene assay, OR1A1 in Hana3A cells; assay type: cell-based; set-up: The open reading frames of ORs were amplified using Phusion polymerase; Rho-tag (first 20 amino acids of human rhodopsin) (N); expressed in transfected cells; host or cells: Hana3A cells (derived from HEK293T), pCI vector; co-transfected with human RTP1S, M3 receptor, CRE-Luc and SV40-RL; conditions: for activation of OR1A1 in dose-responses: Figure 4A; for normilazed value = (L-400/R-400): three replicates
T1 sequence (Q9P1Q5 1-309): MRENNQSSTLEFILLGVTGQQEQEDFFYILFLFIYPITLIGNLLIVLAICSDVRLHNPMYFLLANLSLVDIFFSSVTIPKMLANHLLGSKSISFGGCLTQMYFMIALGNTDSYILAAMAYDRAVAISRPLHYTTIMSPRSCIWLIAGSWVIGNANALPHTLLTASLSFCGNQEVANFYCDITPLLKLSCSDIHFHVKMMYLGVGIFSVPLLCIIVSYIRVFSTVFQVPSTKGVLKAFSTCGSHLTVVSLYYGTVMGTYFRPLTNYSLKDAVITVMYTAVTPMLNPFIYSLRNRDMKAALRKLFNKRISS
Method: Hana3A cells were maintained in minimal essential medium containing 10% FBS (vol/vol) with penicillin-streptomycin and amphotericin B (1/200 each vol/vol) at 37 °C and 5% CO2. Hana3A cells are derived from HEK293T [57] and are optimized for OR studies as shown in several studies, compared to earlier OR expression in Sf9 insect cells in Gat et al., and in Xenopus oocytes, COS-7, PC12h and CHO-K1 cells in Katada et al..
The Dual-Glo luciferase assay system (Promega, Madison, WI, USA) was used to evaluate the functionality of wild-type OR1A1 and OR2W1 in an in vitro system. The open reading frames of ORs were amplified using Phusion polymerase (Thermo Fisher Scientific, Waltham, MA, USA). Amplified fragments were cloned into pCI expression vector (Promega, Madison, WI, USA) containing the sequence encoding the first 20 amino acids of human rhodopsin (Rho-tag) at N-terminal. Hana3A cells have been cultured and plated the day before transfection with 6 mL at 1/10 of a 100% confluence 100 mm plate into 96-well plates coated with poly D-lysine. After overnight incubation, the required genes were transfected using, for each plate, 5 ng SV40-RL, 10 ng CRE-Luc, 5 ng human RTP1S [72], 2.5 ng M3 receptor [73] and 5 ng of receptor (OR1A1, OR2W1 or empty vector Rho-pCI) plasmid. After around 18 h of transfection, cells were stimulated during 3.5 h by 25 µL of odorant diluted in CD293 + 1% glutamine + 30 µM CuCl2. Odorants were obtained from Sigma Aldrich (St. Louis, MO, USA) and diluted at 1 M concentration in DMSO as stock solutions. […] The luminescence of Firefly (Luc) and Renilla (Rluc) luciferase, were then sequentially monitored by injecting the corresponding substrate following the supplier’s protocol. The activity in each well was normalized as (Luc-400)/(Rluc-400). The response of the receptor was also normalized to its basal activity as (NLX/NL0)-1 where NL0 is the normalized luminescence value at 0 µM of odorant and NLX the value at X µM. […] Raw results were first analyzed with Excel (Microsoft Corporation, Albuquerque, NM, USA) and dose response curves, max efficacy and EC50 have been determined with GraphPrism 6 software (GraphPad Software, La Jolla, CA, USA). Areas under the curves (AUC) were calculated in Excel by summing all the OR responses at different concentrations for each odorant.

[2] = target: T1, OR1A1; conditions: cited from earlier work
[3] = target: T2, OR2W1 (Homo sapiens, UniProt Q9Y3N9); conditions: cited from earlier work
T2 sequence (Q9Y3N9 1-320): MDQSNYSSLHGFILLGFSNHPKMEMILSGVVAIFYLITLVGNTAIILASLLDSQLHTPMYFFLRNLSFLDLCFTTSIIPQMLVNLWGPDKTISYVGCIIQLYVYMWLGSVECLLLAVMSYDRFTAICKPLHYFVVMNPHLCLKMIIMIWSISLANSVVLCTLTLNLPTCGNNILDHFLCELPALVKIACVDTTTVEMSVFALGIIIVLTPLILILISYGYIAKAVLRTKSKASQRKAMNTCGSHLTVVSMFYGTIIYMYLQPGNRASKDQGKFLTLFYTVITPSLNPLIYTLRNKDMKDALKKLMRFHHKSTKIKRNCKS

[4] = OR1A1, log(agonist) vs. response (three parameters), 95% CI (profile likelihood), normalized (L-400/R-400)
[5] = OR1A1, log[molecule], M = -3.75
[6] = OR1A1, log[molecule], M = -4.25
[7] = OR1A1, log[molecule], M = -4.75
[8] = OR1A1, log[molecule], M = -5.25
[9] = OR1A1, log[molecule], M = -5.75
[10] = Table S1, ref Supplement references [1]-[9] as printed after each odorant name
[11] = Table S2, ref Supplement references [2]-[12] as printed after each odorant name

Row | Compound | Class (agonist / non-agonist / conflicting info.) for OR1A1 [2, 10] | Class (agonist / non-agonist / antagonist / conflicting info.) for OR2W1 [3, 11] | also measured
1 | c1cnc2c(c1)ccc1cccnc12 [1,10-Phenanthroline] | – | – | activation of OR1A1 in dose-responses [1]: did not activate OR1A1; Bottom [1, 4]: 1.108 to 2.224; normilazed value = (L-400/R-400) ([1]; OR1A1, log[molecule], M = -3.5): -5 and -0.03226 and 0.3636; normilazed value = (L-400/R-400) [1, 5]: 0.5532 and 0.08791 and 0.1429; normilazed value = (L-400/R-400) ([1]; OR1A1, log[molecule], M = -4): -3.909 and 0.2121 and 0.03846; normilazed value = (L-400/R-400) [1, 6]: 1.0814 and 2.077 and 1.521; normilazed value = (L-400/R-400) ([1]; OR1A1, log[molecule], M = -4.5): 1.468 and 1.358 and 1.008; normilazed value = (L-400/R-400) [1, 7]: 0.8876 and 1.015 and 1.576; normilazed value = (L-400/R-400) ([1]; OR1A1, log[molecule], M = -5): 1.356 and 1.5085 and 1.392; normilazed value = (L-400/R-400) [1, 8]: 1.691 and 1.671 and 2.1214; normilazed value = (L-400/R-400) ([1]; OR1A1, log[molecule], M = -5.5): 1.201 and 1.5718 and 1.847; normilazed value = (L-400/R-400) [1, 9]: 1.3268 and 1.745 and 1.5675; normilazed value = (L-400/R-400) ([1]; OR1A1, log[molecule], M = -6): 1.452 and 1.389 and 1.692
2 | C=C(C)[C@H]1CC=C(C)CC1 [Dipentene] | – | – | activation of OR1A1 in dose-responses [1]: weak activator; Bottom [1, 4]: 0.9206 to 2.078; Top [1, 4]: 11.22 to 15.68; normilazed value = (L-400/R-400) ([1]; OR1A1, log[molecule], M = -3.5): 15.0728 and 8.79 and 8.6943; normilazed value = (L-400/R-400) [1, 5]: 10.4582 and 8.9424 and 9.316; normilazed value = (L-400/R-400) ([1]; OR1A1, log[molecule], M = -4): 8.181 and 7.514 and 8.062; normilazed value = (L-400/R-400) [1, 6]: 7.841 and 5.647 and 6.278; normilazed value = (L-400/R-400) ([1]; OR1A1, log[molecule], M = -4.5): 5.494 and 4.914 and 4.401; normilazed value = (L-400/R-400) [1, 7]: 3.7707 and 3.641 and 3.368; normilazed value = (L-400/R-400) ([1]; OR1A1, log[molecule], M = -5): 2.7632 and 2.301 and 2.9635; normilazed value = (L-400/R-400) [1, 8]: 2.721 and 2.59 and 2.766; normilazed value = (L-400/R-400) ([1]; OR1A1, log[molecule], M = -5.5): 2.326 and 2.0399 and 1.767; normilazed value = (L-400/R-400) [1, 9]: 1.87 and 1.732 and 1.479; normilazed value = (L-400/R-400) ([1]; OR1A1, log[molecule], M = -6): 1.6 and 1.531 and 1.2039; EC50 ([1]; OR1A1, three-parameter fit, 95% CI (profile likelihood)): 44.9 to 133 µM; LogEC50 ([1]; OR1A1, three-parameter fit, 95% CI (profile likelihood), log[molecule], M): -4.348 to -3.874
3 | CC1=CCC(C(C)(C)O)CC1 (stereo not shown) [Terpineol] | Conflicting info. | Conflicting info. | –
4 | CC(=O)OC(C)(C)C1CC=C(C)CC1 (stereo not shown) [Terpinyl acetate] | Conflicting info. | Conflicting info. | –
5 | CCC(=O)OC(C)(C)C [Tert-Butyl propionate] | Non-agonist | Non-agonist | –
6 | SCc1cccs1 [Thenyl mercaptan] | Non-agonist | Non-agonist | –
7 | O=C(O)CS [Thioglycolic acid] | Non-agonist | Non-agonist | –
8 | C/C=C/c1ccc(OC)cc1 [Trans-anethole] | Agonist | Agonist | –
9 | Cc1cnc(C)c(C)n1 [Trimethyl pyrazine] | Non-agonist | Non-agonist | –
10 | CCCCC(=O)O [Valeric acid] | Non-agonist | Non-agonist | –
11 | COc1cc(C(=O)O)ccc1O [Vanillic acid] | Non-agonist | Non-agonist | –
12 | COc1cc(C=O)ccc1O [Vanillin] | Non-agonist | Conflicting info. | –
13 | CCCCC/C=C\CCC=O [Z-4-decenal] | Conflicting info. | Non-agonist | –
14 | CC(=O)/C=C/C1=C(C)CCCC1(C)C [Β-ionone] | Non-agonist | Non-agonist | –
15 | CCC1CCC(=O)O1 (stereo not shown) [Γ-caprolactone] | – | – | Class (agonist / non-agonist / conflicting info.) for OR1A1 [2]: Non-agonist; Class (agonist / non-agonist / antagonist / conflicting info.) for OR2W1 [3]: Non-agonist
16 | (+)-Fenchone | Non-agonist | Non-agonist | –
17 | (+)-alpha-Pinene | Non-agonist | Non-agonist | –
18 | (+)-beta-Pinene | Non-agonist | Non-agonist | –
19 | (-)-Fenchone | Non-agonist | Non-agonist | –
20 | (-)-alpha-Terpineol | Non-agonist | Non-agonist | –
21 | (S)-(-)-citronellol | – | – | Class (agonist / non-agonist / conflicting info.) for OR1A1 [2]: Agonist; Class (agonist / non-agonist / antagonist / conflicting info.) for OR2W1 [3]: Agonist
22 | (S)-(-)-limonene | agonists | Agonist | –
23 | Caramel furanone | Non-agonist | Non-agonist | –
24 | Coffee difuran | Conflicting info. | Agonist | –
25 | Ethyl 3-methylthiopropionate | Non-agonist | Non-agonist | –
26 | Isoeugenol | – | – | Class (agonist / non-agonist / conflicting info.) for OR1A1 [2]: Non-agonist; Class (agonist / non-agonist / antagonist / conflicting info.) for OR2W1 [3]: Non-agonist
27 | Laevo-arabinose | Conflicting info. | Non-agonist | –
